Earlier results as cited in patent US20050143441A1, “Novel medical combination treatment of obesity involving 4,5-dihydro-1H-pyrazole derivatives having CB1-antagonistic activity” (priority 2003, published 2005).
Blank lines part the entries; values can stand above or below the compound they belong to.

What was measured:
[1] = target: T1, porcine pancreatic lipase (Sus scrofa, UniProt P00591)
T1 sequence (P00591 1-450): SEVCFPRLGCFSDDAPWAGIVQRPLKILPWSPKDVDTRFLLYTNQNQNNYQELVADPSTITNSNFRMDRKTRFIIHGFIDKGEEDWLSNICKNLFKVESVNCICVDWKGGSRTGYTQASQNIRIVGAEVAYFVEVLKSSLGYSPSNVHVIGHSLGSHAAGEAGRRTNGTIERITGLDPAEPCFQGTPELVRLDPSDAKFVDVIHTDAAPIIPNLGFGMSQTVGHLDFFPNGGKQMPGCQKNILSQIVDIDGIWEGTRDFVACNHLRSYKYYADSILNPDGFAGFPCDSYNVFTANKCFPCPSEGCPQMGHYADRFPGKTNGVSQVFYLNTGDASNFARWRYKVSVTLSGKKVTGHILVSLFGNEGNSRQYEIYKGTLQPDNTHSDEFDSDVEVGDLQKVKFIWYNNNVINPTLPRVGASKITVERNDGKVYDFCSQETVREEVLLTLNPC

[2] = system: carragheenin induced swelling; settings: mice
[3] = system: excretion of fat from the diet; settings: healthy male volunteers, 5 days
plasma lipases = settings: relative to THL
[4] = in vivo
[5] = clinically obese patients

- mode of inhibition of pancreatic lipase (irreversibility) [1]: irreversibly inhibit pancreatic lipase
SMILES: CCCCCCCCCCCC[C@@H]1C(=O)O[C@H]1C[C@H](CCCCCCC)OC(=O)CNC=O [Panclicin E]

- mode of inhibition of pancreatic lipase (irreversibility) [1]: irreversibly inhibit pancreatic lipase
SMILES: CCCCCCCCCC[C@@H]1C(=O)O[C@H]1C[C@H](CCCCCCC)OC(=O)CNC=O [Panclicin D]

- mode of inhibition of pancreatic lipase (irreversibility) [1]: irreversibly inhibit pancreatic lipase
SMILES: CCCCCCC[C@@H](C[C@@H]1OC(=O)[C@H]1CCCCCCCC(C)C)OC(=O)CNC=O [Panclicin C]

The remaining lines, values behind:

SMILES: CC[C@@H](C)[C@@H](O)[C@H](C)C(=O)[C@H](C)/C=C(\C)C[C@H](C)[C@@H]1OC(=O)[C@H]1CC [Ebelactone B]
- carragheenin induced swelling [2]: reduces carragheenin induced swelling

SMILES: CCCCCCCCCCC[C@@H](C[C@@H]1OC(=O)[C@H]1CCCCCC)OC(=O)[C@H](CC(C)C)NC=O [tetrahydrolipstatin, (2S,3S,5S)-5-((S)-2-4-methylvaleryloxy)-2-heyl-3-hydroxy-hexadecanoic acid lactone]
- fat excreted, average ([3]; orlistat 120 mg tid): 5.6 (+/−3.8) g/day

SMILES: CCCCCCC[C@@H](C[C@@H]1OC(=O)[C@H]1CCCCCCCC(C)C)OC(=O)[C@H](C)NC=O [Panclicin A]
- mode of inhibition of pancreatic lipase (irreversibility) [1]: irreversibly inhibit pancreatic lipase
- potency against plasma lipases compared with THL (plasma lipases): same potency as THL

SMILES: CCCCCCCCCCCCCCCCOc1nc2ccc(C)cc2c(=O)o1 [ATL-962, 2-hexadecyloxy-6-methyl-4H-3,1-benzoxazin-4-one]
- toxicity in preclinical studies [4]: no toxicity was observed
- safety and tolerability, phase Ib [3]: safe and well tolerated
- safety and tolerability, phase IIb [5]: safe and generally well tolerated
